This series in a line: photoluminescence quantum yield (fraction); solvent given as SMILES.

For 45 molecules, photoluminescence quantum yield results are on record in the Deep4Chem optical property database.

For the setting “in ClCCl”, `CC(C)(C)c1cc(-c2ccc(-c3cccs3)s2)c2c(c1)c1cc(C(C)(C)C)cc(-c3ccc(-c4cccs4)s3)c1n2-c1ccc(-c2cccs2)s1` displayed a photoluminescence quantum yield of 0.092.
Take `c1csc(-c2ccc(-c3ccc(-c4cccs4)s3)s2)c1`: the photoluminescence quantum yield is, setting by setting: (in CCC(C)C) 0.27; (in ClCCl) 0.16.
As to `CC(=C(C#Cc1ccccc1)C#Cc1ccccc1)c1ccc(C(C)=C(C#Cc2ccccc2)C#Cc2ccccc2)cc1`, the photoluminescence quantum yield (in ClC(Cl)Cl) was 0.03.
Turning to `CN1c2ccccc2CCc2ccccc21`, the photoluminescence quantum yield runs as follows: (in CC#N) 0.031; (in CO) 0.027.
As for `FC(F)(F)c1ccc(/C=C/c2nc(/C=C/c3ccc(N(c4ccccc4)c4ccccc4)cc3)cc(/C=C/c3ccc(N(c4ccccc4)c4ccccc4)cc3)n2)cc1`, the photoluminescence quantum yield (in ClCCl) was found to be 1.
As to `CCN1C(=O)C(C2C(=O)c3c4ccccc4cc4cc5ccccc5c2c34)SC1=S` (configuration not stated), the photoluminescence quantum yield by setting is: (in C1CCOC1) 0.258; (in CC#N) 0.135; (in CCCCCC) 0.33; (in Cc1ccccc1) 0.339; (in ClCCl) 0.229.
As to `CC(=O)c1c2c(cc3cc(N(C)C)ccc13)CCC2`, the photoluminescence quantum yield was determined as 0.08 (in C1CCCCC1); 0.34 (in C1CCOC1); 0.38 (in C1COCCO1); 0.18 (in CC#N); 0.03 (in CCO); 0.37 (in CS(C)=O). Besides, the photoluminescence quantum yield runs as follows: (in Cc1ccccc1) 0.25; (in ClC(Cl)Cl) 0.41; (in ClCCl) 0.82.
As to `Nc1ccc2c(c1)C(=O)c1ccc(N)cc1C2=O`, the photoluminescence quantum yield is, setting by setting: (in CC#N) 0.016; (in CC(C)O) 0.008; (in CCO) 0.0007; (in CCOC(C)=O) 0.028; (in CO) 0.0002.
In turn, `CC1=C(c2ccccc2)Oc2cc3nc4ccccc4nc3c3cccc1c23` gave a photoluminescence quantum yield (in ClCCl) of 0.45.
`CC1=c2c3c4cccc5cccc(c=3c(C)[n+]2[B-](F)(F)n2c(C)c3cc6c(-c7ccccc7)c7c(c(-c8ccccc8)c6cc3c21)-c1cccc2cccc-7c12)c54` returned a photoluminescence quantum yield (in ClCCl) of 0.7.
For the setting “in ClC(Cl)Cl”, `CCOC(=O)/C=C/C1=C(c2ccc(C)cc2)C2=Nc3c(-c4ccc(C)cc4)cc(-c4ccc(C)cc4)n3[B-](F)(F)[N+]2=C1c1ccc(C)cc1` came in with a photoluminescence quantum yield of 0.24.
As to `CCn1ncc2c3c(C#N)c4c5ccccc5n(CC)c4nc3ccc21`, for the setting “in CCOC(C)=O”, the photoluminescence quantum yield came out at 0.6.
For the molecule `Cc1cc(N2c3ccccc3C(C)(C)c3ccccc32)ccc1-c1ncnc(-c2ccc(N3c4ccccc4C(C)(C)c4ccccc43)cc2C)c1C`, the photoluminescence quantum yield (in O=P(c1ccccc1)(c1ccccc1)c1ccccc1Oc1ccccc1P(=O)(c1ccccc1)c1ccccc1) was found to be 0.47.
`O[Si](c1c2ccccc2cc2ccccc12)(c1c2ccccc2cc2ccccc12)c1c2ccccc2cc2ccccc12` registered a photoluminescence quantum yield (in ClC(Cl)Cl) of 0.015.
Same read-out and setting: for `N#CC(C#N)=Cc1ccc(-c2ccc(N(c3ccccc3)c3ccccc3)cc2)o1` the value was 0.19.
As to `c1ccc(-n2c(-c3cccc4ccccc34)nc3c4ccccc4c4ccccc4c32)cc1`, for the setting “in Cc1ccccc1”, the photoluminescence quantum yield stood at 0.79.
`FC(F)(F)c1ccc(-c2ccc(-c3cc(-c4ccccn4)nc(-c4ccccn4)c3)cc2)cc1` had a photoluminescence quantum yield (in ClCCl) of 0.17.
`CC(C)Oc1ccc(C#Cc2cc3ccccc3oc2=O)cc1` came in with a photoluminescence quantum yield (in CC#N) of 0.43.
Consider `Nc1ccc2c(c1)Cc1ccccc1-2`, for which the photoluminescence quantum yield (in C1CCCCC1) came out at 0.74; the photoluminescence quantum yield (in C1COCCO1) amounted to 0.73; the photoluminescence quantum yield (in CC#N) turned out to be 0.52; the photoluminescence quantum yield (in CO) came out at 0.84; the photoluminescence quantum yield (in O) turned out to be 0.2.
With `O=C1c2cc(F)ccc2-c2cnccc21`, the photoluminescence quantum yield (in CC#N) came out at 0.015; the photoluminescence quantum yield (in CCCCCC) stood at 0.0017; the photoluminescence quantum yield (in CCOC(C)=O) was 0.02; the photoluminescence quantum yield (in Cc1ccccc1) was 0.012; the photoluminescence quantum yield (in ClCCl) stood at 0.018.
Regarding `c1ccc(N(c2ccccc2)c2ccc3ccc4c(N(c5ccccc5)c5ccccc5)ccc5ccc2c3c54)cc1`, where the note is “in ClCCl”, the photoluminescence quantum yield was found to be 0.78.
For `O=Cc1ccc(-c2ccc(C3=CCC(c4ccccc4)CC3)s2)s1` (configuration not stated), the photoluminescence quantum yield (in CCO) is 0.29.
As for `CCN1C(=CC=Cc2n(CC)c3cc(Cl)c(Cl)cc3[n+]2CC)N(CC)c2cc(Cl)c(Cl)cc21`, the photoluminescence quantum yield reads like this: (in CC#N) 0.024; (in CCCCCCO) 0.058; (in CCCCO) 0.042; (in CCCO) 0.033; (in CCO) 0.023; (in CO) 0.016. The photoluminescence quantum yield is, setting by setting: (in CS(C)=O) 0.055; (in OCC(O)CO) 0.36; (in OCCO) 0.075.
`c1ccc(C2=C(c3ccccc3)c3cccc4c3c(cc3nc5c(-c6ccccc6)ccc(-c6ccccc6)c5nc34)O2)cc1` registered a photoluminescence quantum yield (in ClCCl) of 0.23.
Regarding `C(=C\c1ncnc2ccccc12)/c1ccc(-c2ccc(N(c3ccccc3)c3ccccc3)cc2)cc1`, the photoluminescence quantum yield (in ClCCl) is 0.23.
The molecule `N#Cc1c(N2CCCCC2)cc(-c2cccs2)c2c1CCc1ccccc1-2` showed a photoluminescence quantum yield (in C1CCOC1) of 0.21.
Consider `CC1=C2C3=C(CCc4ccccc43)C(C)=[N+]2[B-](F)(F)n2c(C)c3c(c21)-c1ccccc1CC3`, for which the photoluminescence quantum yield (in CC#N) turned out to be 0.38.
For `CC(C)c1cccc(C(C)C)c1-n1c(=O)c2ccc3c4ccc5c(=O)n(-c6c(C(C)C)cccc6C(C)C)c(=O)c6cc7c(-c8ccccn8)nc8cc(c1=O)c2c3c8c7c4c56`, the photoluminescence quantum yield (in ClC(Cl)Cl) is 0.36.
Turning to `c1cc2c([nH]c3c4[nH]c5sccc5c4c4nsnc4c23)s1`, the photoluminescence quantum yield was 0.38 (in C1CCOC1); 0.34 (in CCOC(C)=O); 0.33 (in CN(C)C=O); 0.42 (in Cc1ccccc1); 0.27 (in ClCCl).
In turn, `CCOC(=O)c1c2c3c(ccc(Cl)c3c3cc4ccccc4cc13)N(C)C2=O` registered a photoluminescence quantum yield (in CC#N) of 0.41.
`Cc1ccc(-c2ccc(/C=C/c3ccc(C#N)cc3)cn2)nc1` yielded a photoluminescence quantum yield (in CC#N) of 0.27.
`Cc1ccc2cc(C)ccc2c1` registered a photoluminescence quantum yield (in C1CCCCC1) of 0.59.
On to `CCCCCCCCCCCCn1cccc1/C=C/c1ccc(/C=C/c2cccn2CCCCCCCCCCCC)cc1`, for which the photoluminescence quantum yield (in Cc1ccccc1) was found to be 0.32.
Turning to `Cc1ccc(/C2=C3N=C(C(c4ccccc4)=C/3c3ccccc3)/C(c3ccc(C)cc3)=c3\[nH]/c(c(-c4ccccc4)c3-c3ccccc3)=C(/c3ccc(C)cc3)C3=N/C(=C(/c4ccc(C)cc4)c4[nH]c2c(-c2ccccc2)c4-c2ccccc2)C(c2ccccc2)=C3c2ccccc2)cc1`, the photoluminescence quantum yield (in ClCCl) was 0.008.
In the case of `CC(C)[Si](C#Cc1c2ccccc2c(C#C[Si](C(C)C)(C(C)C)C(C)C)c2nc3cc4c(cc3nc12)C1c2ccccc2C4c2ccccc21)(C(C)C)C(C)C`, the photoluminescence quantum yield by setting is: (in CCCCCC) 0.57; (in ClCCl) 0.76.
As for `COc1ccc(C2=N/C(=C\c3ccc(C#N)cc3)C(=O)O2)cc1OC`, the photoluminescence quantum yield (in C1COCCO1) is 0.421.
Turning to `CCN(CC)c1ccc2cc(/C=C/c3cccc[n+]3CCCS(=O)(=O)[O-])c(=O)oc2c1`, the photoluminescence quantum yield is, setting by setting: (in C1CCOC1) 0.14; (in CC#N) 0.11; (in CC(C)=O) 0.11; (in CS(C)=O) 0.16; (in Cc1ccccc1) 0.02; (in O) 0.03. Besides, the photoluminescence quantum yield (in OCC(O)CO) was 0.19.
Consider `c1csc(-c2cnc(-c3cccs3)c3nonc23)c1`, for which the photoluminescence quantum yield by setting is: (in C1CCCCC1) 0.54; (in CC(C)=O) 0.39; (in CCCCCC) 0.54; (in CCCO) 0.22; (in CCO) 0.19; (in CCOCC) 0.52. In addition, the photoluminescence quantum yield is, setting by setting: (in CO) 0.15; (in Cc1ccccc1) 0.35; (in ClC(Cl)(Cl)Cl) 0.43; (in ClC(Cl)Cl) 0.35; (in O=[N+]([O-])c1ccccc1) 0.2; (in OCC(O)CO) 0.03. For the same molecule, the photoluminescence quantum yield was 0.12 (in OCc1ccccc1), 0.25 (in c1ccc2ncccc2c1), 0.4 (in c1ccccc1) and 0.23 (in c1ccncc1).
`c1ccc(-c2nc(-c3ccccc3)nc(-c3ccc(-c4ccc5c(c4)C4(c6ccccc6-c6ccccc64)c4ccccc4N5c4ccccc4)cc3)n2)cc1`: the photoluminescence quantum yield (in c1cc(-c2cccc(-n3c4ccccc4c4ccccc43)c2)cc(-n2c3ccccc3c3ccccc32)c1) came out at 0.82.
For the molecule `COc1ccc(-c2cc3c(s2)-c2sc(-c4ccc(OC)cc4)cc2P(c2ccccc2)(c2ccccc2)=[O+][B-]3(c2c(C)cc(C)cc2C)c2c(C)cc(C)cc2C)cc1`, the photoluminescence quantum yield (in C1CCOC1) worked out at 0.52.
`CC(=O)c1cc(=O)n(C)c2cc(-c3ccc(N(C)C)cc3)sc12`: the photoluminescence quantum yield (in ClCCl) turned out to be 0.18.
On to `CCOC(=O)COc1ccc(/C=C/c2cc(C)c3n2[B-](F)(F)[N+]2=C(c4[nH]c(C)cc4C)c4ccccc4C2=C3)cc1`, for which the photoluminescence quantum yield is, setting by setting: (in C1CCOC1) 0.34; (in CC#N) 0.3; (in CCCCCC) 0.73; (in CO) 0.08; (in Cc1ccccc1) 0.69; (in ClCCl) 0.75.
Take `COC(=O)c1ccccc1C#Cc1ccccc1NC(C)=O`: the photoluminescence quantum yield came out at 0.0002 (in CC#N) and 0.0003 (in ClCCl).
`CCCCC1(CCCC)c2cc(C#Cc3ccc(/C=C(\C)c4ccccc4)cc3)ccc2-c2ccc(C#Cc3ccc(/C=C(\C)c4ccccc4)cc3)cc21` had a photoluminescence quantum yield (in C1CCOC1) of 0.586.
Regarding `CCOc1ccc2c(-c3nc(-c4ccccc4)no3)cc(=O)oc2c1`, the photoluminescence quantum yield (in CCO) is 0.6 and the photoluminescence quantum yield (in ClC(Cl)Cl) is 0.31.
